Source: paper PMC5048545 (Journal of molecular biology, 2016)

Tests used:
[1] = target: T1, carboxysome-associated PII protein (CPII) (Thiomonas intermedia, UniProt D5X329)
[2] = target: T1, carboxysome-associated PII protein (CPII); experiment: crystal structures; format: binding

Compound	crystal structure; EPR titration [1]	Kd [2] [µM]
O=C(O)O [bicarbonate]	Bicarbonate molecules bind in nooks formed by Gly-101 and Arg-102, which immediately precede the C-loop α-helix	
Nc1ncnc2c1ncn2[C@@H]1O[C@H](COP(=O)(O)O)[C@@H](O)[C@H]1O [AMP]		1800
